Measured values from PubChem BioAssay (NCI).
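GI50 is the concentration that inhibits growth by half. Definition used: TGI = concentration required for complete inhibition of growth.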

Key:
Assay in all cases: inhibition of tumour cell growth, NCI panel, 384-well format
CAKI-1 renal = test system: CAKI-1 renal
SK-MEL-28 melanoma = test system: SK-MEL-28 melanoma
RXF 393 renal = test system: RXF 393 renal
K-562 leukemia = test system: K-562 leukemia
EKVX NSCLC = test system: EKVX NSCLC
SNB-19 CNS = test system: SNB-19 CNS
OVCAR-8 ovarian = test system: OVCAR-8 ovarian
SN12C renal = test system: SN12C renal
COLO 205 colon = test system: COLO 205 colon
HS 578T breast = test system: HS 578T breast
SF-539 CNS = test system: SF-539 CNS
A549 NSCLC = test system: A549 NSCLC
HL-60(TB) leukemia = test system: HL-60(TB) leukemia
NCI/ADR-RES ovarian = test system: NCI/ADR-RES ovarian
KM12 colon = test system: KM12 colon
PC-3 prostate = test system: PC-3 prostate
HOP-62 NSCLC = test system: HOP-62 NSCLC
T-47D breast = test system: T-47D breast
OVCAR-5 ovarian = test system: OVCAR-5 ovarian
MDA-MB-231 breast = test system: MDA-MB-231 breast
UACC-62 melanoma = test system: UACC-62 melanoma
SW-620 colon = test system: SW-620 colon
SF-268 CNS = test system: SF-268 CNS
BT-549 breast = test system: BT-549 breast
M14 melanoma = test system: M14 melanoma
A498 renal = test system: A498 renal
786-0 renal = test system: 786-0 renal
SNB-75 CNS = test system: SNB-75 CNS
MDA-MB-468 breast = test system: MDA-MB-468 breast
HT29 colon = test system: HT29 colon
IGROV1 ovarian = test system: IGROV1 ovarian
HCT-15 colon = test system: HCT-15 colon
RPMI-8226 leukemia = test system: RPMI-8226 leukemia
OVCAR-3 ovarian = test system: OVCAR-3 ovarian
SF-295 CNS = test system: SF-295 CNS
NCI-H23 lung = test system: NCI-H23 lung
MCF7 breast = test system: MCF7 breast
HCT-116 colon = test system: HCT-116 colon
UACC-257 melanoma = test system: UACC-257 melanoma
SK-MEL-5 melanoma = test system: SK-MEL-5 melanoma
NCI-H522 lung = test system: NCI-H522 lung
NCI-H322M lung = test system: NCI-H322M lung
MALME-3M melanoma = test system: MALME-3M melanoma
SK-OV-3 ovarian = test system: SK-OV-3 ovarian
U251 glioblastoma = test system: U251 glioblastoma
HOP-92 NSCLC = test system: HOP-92 NSCLC
UO-31 renal = test system: UO-31 renal
CCRF-CEM leukemia = test system: CCRF-CEM leukemia
MOLT-4 leukemia = test system: MOLT-4 leukemia
NCI-H460 NSCLC = test system: NCI-H460 NSCLC
TK-10 renal = test system: TK-10 renal
HCC-2998 colon = test system: HCC-2998 colon
LOX IMVI melanoma = test system: LOX IMVI melanoma

## Cc1cc(Nc2ncc3c(n2)N(C)C(=O)N(c2cc(NC(=O)c4cccc(C(F)(F)F)c4)ccc2C)C3)n(C)n1
CAKI-1 renal
  GI50: < 10 nM
  TGI: 20.5 nM
SK-MEL-28 melanoma
  GI50: 16.2 nM
  TGI: 83 nM
RXF 393 renal
  GI50: < 10 nM
  TGI: 87.1 nM
K-562 leukemia
  GI50: < 10 nM
EKVX NSCLC
  GI50: 40.8 nM
  TGI: 305 nM
SNB-19 CNS
  GI50: 199 nM
  TGI: > 100000 nM
OVCAR-8 ovarian
  GI50: 34.1 nM
  TGI: 337 nM
SN12C renal
  GI50: 11.1 nM
  TGI: 59.3 nM
COLO 205 colon
  GI50: < 10 nM
  TGI: 128 nM
HS 578T breast
  GI50: 15.6 nM
  TGI: 54.3 nM
SF-539 CNS
  GI50: 72.6 nM
  TGI: 577 nM
A549 NSCLC
  GI50: 17.9 nM
  TGI: 162 nM
HL-60(TB) leukemia
  GI50: 21.6 nM
  TGI: 107 nM
NCI/ADR-RES ovarian
  GI50: 1650 nM
  TGI: 3240 nM
KM12 colon
  GI50: 513 nM
  TGI: > 100000 nM
PC-3 prostate
  GI50: 4250 nM
  TGI: > 100000 nM
HOP-62 NSCLC
  GI50: 87.6 nM
  TGI: 534 nM
T-47D breast
  GI50: 25.7 nM
  TGI: 75.1 nM
OVCAR-5 ovarian
  GI50: 34.2 nM
  TGI: 254 nM
MDA-MB-231 breast
  GI50: 11.3 nM
  TGI: 87.1 nM
UACC-62 melanoma
  GI50: < 10 nM
  TGI: 15 nM
SW-620 colon
  GI50: 69.9 nM
  TGI: 1280 nM
SF-268 CNS
  GI50: < 10 nM
  TGI: 13.6 nM
BT-549 breast
  GI50: 19.9 nM
  TGI: 73.3 nM
M14 melanoma
  GI50: < 10 nM
  TGI: 28.8 nM
A498 renal
  GI50: 14.2 nM
  TGI: 105 nM
786-0 renal
  GI50: 40.1 nM
  TGI: 302 nM
SNB-75 CNS
  GI50: 18.9 nM
  TGI: 77.9 nM
MDA-MB-468 breast
  GI50: 25.1 nM
  TGI: 98.2 nM
HT29 colon
  GI50: 16.4 nM
  TGI: 312 nM
IGROV1 ovarian
  GI50: < 10 nM
  TGI: 34.6 nM
HCT-15 colon
  GI50: 224 nM
  TGI: 1390 nM
RPMI-8226 leukemia
  GI50: 286 nM
  TGI: 1790 nM
OVCAR-3 ovarian
  GI50: 24.3 nM
  TGI: 198 nM
SF-295 CNS
  GI50: 1420 nM
  TGI: > 100000 nM
NCI-H23 lung
  GI50: 24.4 nM
  TGI: 189 nM
MCF7 breast
  GI50: 880 nM
  TGI: > 100000 nM
HCT-116 colon
  GI50: 27.2 nM
  TGI: 147 nM
UACC-257 melanoma
  GI50: 33.8 nM
  TGI: 311 nM
SK-MEL-5 melanoma
  GI50: 32.3 nM
  TGI: 8420 nM
NCI-H522 lung
  GI50: < 10 nM
  TGI: 31.3 nM
NCI-H322M lung
  GI50: 22 nM
  TGI: 137 nM
MALME-3M melanoma
  GI50: < 10 nM
SK-OV-3 ovarian
  GI50: < 10 nM
  TGI: 42.9 nM
U251 glioblastoma
  GI50: 25.8 nM
  TGI: 1200 nM
HOP-92 NSCLC
  GI50: 17.3 nM
  TGI: 74.6 nM
UO-31 renal
  GI50: 134 nM
  TGI: 312 nM
CCRF-CEM leukemia
  GI50: 1340 nM
  TGI: 3420 nM
MOLT-4 leukemia
  GI50: 22.1 nM
  TGI: 1360 nM
NCI-H460 NSCLC
  GI50: 52 nM
  TGI: > 100000 nM
TK-10 renal
  GI50: 28.8 nM
  TGI: 120 nM
HCC-2998 colon
  GI50: 45.8 nM
  TGI: 1090 nM
LOX IMVI melanoma
  GI50: < 10 nM
  TGI: 11 nM
